{"source": "patent US11649458B2", "about": "“Inhibiting angiotensinogen to attenuate aortic pathology in Marfan syndrome” (UNIVERSITY OF KENTUCKY RESEARCH FOUNDATION, priority 2020, dated 2023)", "key": {"[1]": {"test_system": "patients with Marfan syndrome", "conditions": "male less than 16 years old, female less than 15; losartan p=0.002, atenolol p<0.001; cited from earlier work"}, "[2]": {"test_system": "FBN1 mgR/mgR mice", "experiment": "Survival and ascending aortic diameter in FBN1 mgR/mgR mice with established aortic dilation infused with enalapril or losartan by osmotic mini pump", "format": "in vivo", "conditions": "for survival after 12 weeks versus PBS: mini pump from 6 weeks of age", "method": "Male and female fibrillin-1 hypomorphic (FBN1 mgR/mgR) mice (n=10-12/group) were stratified into treatment groups by aortic diameter at 6 weeks of age to ensure an equivalent average aortic diameter in each group at the start of the study. Osmotic mini pumps filled with PBS (vehicle), enalapril (2 mg/kg/d), or losartan (20 mg/kg/d) were implanted subcutaneously into mice after stratification. Mini pumps infusing drug or vehicle were replaced every 4 weeks for a total duration of 12 weeks. Wild type littermates (n=10) were infused with PBS as a negative control to the Marfan mouse model. Ascending aortic diameters from male and female FBN1 mgR/mgR mice and their wild type littermates were assessed by ultrasound every 4 weeks from 6 to 18 weeks of age. Aortic diameters were measured luminal edge to luminal edge during diastole."}, "[3]": {"test_system": "individuals with Marfan syndrome", "conditions": "cited from earlier work"}, "[4]": {"test_system": "patients with Marfan syndrome", "conditions": "median follow-up 8 years; control group 5; p=0.14; cited from earlier work"}, "[5]": {"test_system": "Fbn1^mgR/mgR mice", "experiment": "Survival of Fbn1^mgR/mgR mice given losartan in drinking water starting at P24 or P50", "format": "in vivo", "conditions": "for survival compared to Fbn1^mgR/mgR mice receiving no drug, survival analysis starting at P50: p=0.017", "source_text": "Male (n=40) and female (n=28) Fbn1^mgR/mgR mice were randomized to receive losartan in drinking water (0.6 g/L) starting at either postnatal day 24 (P24) or 50 (P50). Data derived from these mice was compared to littermate Fbn1^mgR/mgR (20 males, 14 females) and wild type (15 males, 15 females) mice that were given vehicle only. All mice were terminated at 20 weeks of age. Mice that died during the study were necropsied to determine cause of death."}, "[6]": {"test_system": "mouse models of TAA", "conditions": "cited from earlier work"}, "[7]": {"test_system": "male FBN1^mgR/mgR (mgR) mice", "experiment": "Losartan withdrawal in male FBN1^mgR/mgR mice, death by aortic rupture", "format": "in vivo", "source_text": "Withdrawal of losartan during late adolescence (52 days of age) was followed by 6/10 mice dying by aortic rupture within 4 weeks (shaded area). (*=p<0.05. Censored data include humane endpoints and non-rupture events.)"}, "[8]": {"conditions": "female mgR mice, PBS=1.92+/-0.13, p=0.86, no significant difference"}, "[9]": {"conditions": "male mgR mice, PBS=2.69+/-0.19 mm, p=0.24, no significant difference"}}}
{"smiles": "CC(C)NCC(O)COc1ccc(CC(N)=O)cc1", "note": "(stereo not drawn) [atenolol]", "values": [{"measurement": "change in aortic-root z scores over time with younger age of initiation", "setting": "[1]", "result": "greater decrease"}]}
{"smiles": "CCOC(=O)[C@H](CCc1ccccc1)N[C@@H](C)C(=O)N1CCC[C@H]1C(=O)O", "note": "[enalapril]", "values": [{"measurement": "survival after 12 weeks versus PBS", "setting": "[2]; female mgR mice, p=0.094", "result": "no significant difference"}, {"measurement": "maximum ascending aortic diameter after treatment for 12 weeks", "setting": "[2]; [8]", "result": "1.89+/−0.31"}, {"measurement": "survival after 12 weeks versus PBS", "setting": "[2]; male mgR mice, p=0.224", "result": "no significant difference"}, {"measurement": "maximum ascending aortic diameter after treatment for 12 weeks", "setting": "[2]; [9]", "result": "2.04+/−0.27 mm"}]}
{"smiles": "CCCCC1=NC2(CCCC2)C(=O)N1Cc1ccc(-c2ccccc2-c2nnn[nH]2)cc1", "note": "[irbesartan]", "values": [{"measurement": "aortic root expansion", "setting": "[3]", "result": "significantly attenuated"}]}
{"smiles": "CCCCc1nc(Cl)c(CO)n1Cc1ccc(-c2ccccc2-c2nn[nH]n2)cc1", "note": "[losartan]", "values": [{"measurement": "number of deaths", "setting": "[4]", "result": 0}, {"measurement": "survival benefit in female mice", "setting": "[5]; female Fbn1^mgR/mgR mice, survival not different from wild type females", "result": "not possible to detect a survival benefit"}, {"measurement": "survival compared to Fbn1^mgR/mgR males receiving no drug", "setting": "[5]; males, losartan 0.6 g/L drinking water from P24, p<0.001, log-rank", "result": "increased"}, {"measurement": "survival compared to wild type male mice", "setting": "[5]; males, losartan from P24, p=0.138", "result": "not different"}, {"measurement": "survival compared to wild type mice", "setting": "[5]; males, losartan from P50, p=0.002", "result": "decreased"}, {"measurement": "survival compared to Fbn1^mgR/mgR mice receiving no drug, survival analysis starting at P50", "setting": "[5]; males, losartan from P50", "result": "increased survival"}, {"measurement": "survival compared to Fbn1^mgR/mgR mice receiving no drug, survival analysis starting at P50", "setting": "[5]; males, losartan from P50, listed as Losartan", "result": "improves survival"}, {"measurement": "survival compared to Fbn1^mgR/mgR males receiving no drug", "setting": "[5]; males, losartan from P50, p=0.194", "result": "not different"}, {"measurement": "aortic root expansion in Fbn1^C1041G/+ mice", "setting": "[6]; literature ref 9", "result": "decrease aortic root expansion"}, {"measurement": "aortic expansion in other mouse models of TAA", "setting": "[6]; literature refs 6-11", "result": "reduces aortic expansion"}, {"measurement": "mortality due to aortic rupture compared to mgR controls", "setting": "[7]; male mgR mice, losartan in drinking water from 24 days of age, p<0.05", "result": "protected from mortality"}, {"measurement": "mice dying by aortic rupture within 4 weeks of losartan withdrawal", "setting": "[7]; withdrawal at 52 days of age", "result": "6/10"}, {"measurement": "efficacy when administered after significant thoracic aortic dilation has already occurred", "setting": "[2]; FBN1^mgR/mgR mice", "result": "not effective"}, {"measurement": "survival after 12 weeks versus PBS", "setting": "[2]; female mgR mice, p=0.094", "result": "no significant difference"}, {"measurement": "maximum ascending aortic diameter after treatment for 12 weeks", "setting": "[2]; [8]", "result": "1.98+/−0.17"}, {"measurement": "survival after 12 weeks versus PBS", "setting": "[2]; male mgR mice, p=0.224", "result": "no significant difference"}, {"measurement": "maximum ascending aortic diameter after treatment for 12 weeks", "setting": "[2]; [9]", "result": "2.42+/−0.28 mm"}, {"measurement": "change in aortic-root z scores over time with younger age of initiation", "setting": "[1]", "result": "greater decrease"}]}
